Experimental data as given in article PMC6258903 (Nature, 2014).

Tests used:
[1] = target: T1, Axl (Homo sapiens, UniProt P30530); assay: Tracer-based kinase binding assay
T1 sequence (P30530 26-894): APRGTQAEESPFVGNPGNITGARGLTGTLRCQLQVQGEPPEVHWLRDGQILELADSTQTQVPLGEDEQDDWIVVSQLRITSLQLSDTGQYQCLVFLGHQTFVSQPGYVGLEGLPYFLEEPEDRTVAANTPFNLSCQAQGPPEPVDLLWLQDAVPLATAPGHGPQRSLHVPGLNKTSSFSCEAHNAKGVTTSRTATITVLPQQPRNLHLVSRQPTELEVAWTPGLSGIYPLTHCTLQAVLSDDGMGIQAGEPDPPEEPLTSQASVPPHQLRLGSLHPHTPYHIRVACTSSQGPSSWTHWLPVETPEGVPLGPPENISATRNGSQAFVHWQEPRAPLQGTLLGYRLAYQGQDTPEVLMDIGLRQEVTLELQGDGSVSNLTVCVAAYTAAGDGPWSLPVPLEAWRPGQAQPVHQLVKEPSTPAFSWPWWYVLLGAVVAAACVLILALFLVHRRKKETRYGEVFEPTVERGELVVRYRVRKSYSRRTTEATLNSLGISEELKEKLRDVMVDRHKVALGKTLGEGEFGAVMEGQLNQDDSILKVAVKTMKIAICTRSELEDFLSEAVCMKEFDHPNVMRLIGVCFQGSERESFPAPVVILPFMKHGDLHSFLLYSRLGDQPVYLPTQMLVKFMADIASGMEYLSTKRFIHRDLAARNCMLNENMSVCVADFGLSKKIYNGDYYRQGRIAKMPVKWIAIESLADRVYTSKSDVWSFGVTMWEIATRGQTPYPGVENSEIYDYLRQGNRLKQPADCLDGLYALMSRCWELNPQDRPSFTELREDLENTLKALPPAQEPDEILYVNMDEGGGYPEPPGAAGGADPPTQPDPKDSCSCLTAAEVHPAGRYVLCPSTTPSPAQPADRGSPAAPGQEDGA

[2] = system: 95 different cancer cell lines; assay: Proliferation assay on a panel of cancer cell lines; assay type: cell-based
[3] = system: RMA-Rae1 cells; assay: In vivo NK cell cytotoxicity towards RMA-Rae1 cells; conditions: warfarin, Cbl-b+/+ mice treated for 7 days before inoculation
[4] = system: RMA-S cells; assay: In vivo NK cell cytotoxicity towards RMA-S cells; conditions: Cbl-b+/+ mice treated for 7 days before inoculation
[5] = system: B16F10 melanoma; assay: B16F10 metastatic melanoma model, low dose warfarin in drinking water; assay type: in vivo, mice; conditions: for melanoma metastases to the lungs and distal organs: low dose warfarin 0.5mg/l in drinking water
[6] = Prothrombine time and bleeding in warfarin-treated mice

CCOc1ccn(-c2ccc(F)cc2)c(=O)c1C(=O)Nc1ccc(Oc2ccnc(N)c2Cl)c(F)c1 [BMS-777607/ASLAN002]
inhibitory activity of reference compounds in the Axl HTRF assay [1]: showed inhibitory activities as expected

Cc1nc(Nc2ncc(C(=O)Nc3c(C)cccc3Cl)s2)cc(N2CCN(CCO)CC2)n1 [dasatinib]
IC50 ([2]; read-out: IC50 proliferation, non-specific kinase inhibitors): < 100 nM

Cc1ccc(NC(=O)c2ccc(CN3CCN(C)CC3)cc2)cc1Nc1nccc(-c2cccnc2)n1 [imatinib]
proliferation inhibition profile, specific kinase blockers ([2]; same panel, e.g. K562 cells): inhibit proliferation of only a few cell lines

CN[C@@H]1C[C@H]2O[C@@](C)([C@@H]1OC)n1c3ccccc3c3c4c(c5c6ccccc6n2c5c31)C(=O)NC4 [staurosporine]
inhibitory activity of reference compounds in the Axl HTRF assay [1]: showed inhibitory activities as expected

CCN(CC)CCNC(=O)c1c(C)[nH]c(/C=C2\C(=O)Nc3ccc(F)cc32)c1C [sunitinib]
inhibitory activity of reference compounds in the Axl HTRF assay [1]: showed inhibitory activities as expected

CC(=O)CC(c1ccccc1)c1c(O)c2ccccc2oc1=O (stereo not drawn) [warfarin]
in vivo NK cell cytotoxicity towards RMA-Rae1 [3]: enhanced in vivo NK cell cytotoxicity
in vivo NK cell cytotoxicity towards RMA-S [4]: enhanced in vivo NK cell cytotoxicity
melanoma metastases to the lungs and distal organs ([5]; Cbl-b defective mice): had no apparent effect
melanoma metastases to the lungs and distal organs ([5]; Cbl-b+/+ and Cbl-b+/- mice, day +16): markedly reduced melanoma metastases
metastatic melanomas ([5]; low dose warfarin, absence of NK1.1+ cells): abolished the effects of warfarin
prothrombine time / coagulopathy ([6]; 0.5mg/l in drinking water for 21 days): does not cause a coagulopathy
bleeding ([6]; warfarin-treated mice compared to vehicle controls): never observed neither spontaneous nor excessive bleeding
